The values that follow come from patent publication US20150231090A1 (Hong Kong Baptist University, priority 2013, published 2015).

The nature of the data set: Toxicity of Guttiferone K in vivo. More on the design: species or system BALB/c male mice. Particulars: 1, 3, 10 mg/kg i.p. for 28 days.

`CC(C)=CCC[C@@]1(C)[C@H](CC=C(C)C)C[C@]2(CC=C(C)C)C(=O)[C@@]1(CC=C(C)C)C(=O)C(C(=O)c1ccc(O)c(O)c1)=C2O` [Guttiferone K]: the “organ size and cell morphology of target organs (brain, heart, lung, liver, spleen, kidney)” value is “no evidence of organ size and cell morphology of target organs”.
